{"source": "patent US5622948A", "about": "“Pyrrole pyridazine and pyridazinone anti-inflammatory agents” (Syntex (U.S.A.) Inc., priority 1994, dated 1997)", "key": {"[1]": {"tested_on": "PGE2 levels in the air-pouch exudate", "assay": "PGE2 in exudate of carrageenan-induced inflammation (air-pouch model) in rats", "type": "in vivo, rat", "settings": "Rattus norvegicus; 0.1-30 mg/kg, relative to vehicle; read-out: IC50, inhibition of PGE2 levels in the exudate"}, "[2]": {"target": "T1, COX I (Rattus norvegicus, UniProt Q63921)", "T1 construct": "Rat whole blood; from tissue; host or cells: rat whole blood", "T1 sequence (Q63921 27-602)": "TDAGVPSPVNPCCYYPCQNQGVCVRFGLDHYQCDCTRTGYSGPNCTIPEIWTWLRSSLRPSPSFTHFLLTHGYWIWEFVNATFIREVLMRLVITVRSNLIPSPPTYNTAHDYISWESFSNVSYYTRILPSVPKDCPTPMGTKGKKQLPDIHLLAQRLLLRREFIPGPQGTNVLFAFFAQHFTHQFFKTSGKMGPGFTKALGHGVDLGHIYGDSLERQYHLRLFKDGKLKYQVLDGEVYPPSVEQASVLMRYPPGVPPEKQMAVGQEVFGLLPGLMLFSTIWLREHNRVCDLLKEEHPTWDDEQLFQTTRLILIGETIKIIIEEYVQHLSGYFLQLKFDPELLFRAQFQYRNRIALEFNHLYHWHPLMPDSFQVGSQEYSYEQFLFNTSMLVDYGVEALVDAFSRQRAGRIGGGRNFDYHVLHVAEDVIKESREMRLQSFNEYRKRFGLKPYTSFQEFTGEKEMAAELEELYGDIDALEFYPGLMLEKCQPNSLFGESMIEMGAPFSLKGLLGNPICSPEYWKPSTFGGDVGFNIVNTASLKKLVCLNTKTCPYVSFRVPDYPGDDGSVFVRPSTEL", "assay": "TxB2 production in rat whole blood activated with A23187", "type": "cell-based", "settings": "15 min incubation; 30 min activation with A23187; EIA determination of TxB2; read-out: COX I IC50, inhibition of TxB2 production", "procedure": "A summary of activities of Compound (16) against COX I and COX II in cell-free enzyme preparations and whole cells is presented in Table 1. The following abbreviations are used: AA is arachidonic acid, IL-1 is interleukin 1, PMA is phorbol myristate acetate, A23187 is a calcium ionophore (Sigma), BSA is bovine serum albumin and LPS is a lipopolysaccharide (Sigma).\nRat whole blood 15 min incubation with Compound (16)\nEIA determination of TxB2"}, "[3]": {"tested_on": "carrageenan-induced paw edema", "assay": "Carrageenan-induced paw edema in the rat", "type": "in vivo", "settings": "oral", "procedure": "Carrageenan-induced paw edema in the rat has been used as the primary in vivo screen for anti-inflammatory activity of most NSAIDs.\nOver a series of assays, in which Compound (16), suspended in SSV, was administered orally to rats 1 hour prior to injection of carrageenan, Compound (16) inhibited carrageenan-induced paw edema (ED30 =1.1±1.0 mg/kg)."}}, "note": "Values joined by “and” are separate entries in the source; they are usually repeats but may differ in a detail not shown here. Identical values can stand only once."}
{"smiles": "Cc1cc(Cc2ccc(=O)[nH]n2)n(C)c1C(=O)c1ccc(Cl)cc1", "note": "[Compound 16, 6-[1,4-dimethyl-5-(4chloro-benzoyl)-1H-pyrrol-2-ylmethyl]-2H-pyridazin-3-one]", "values": [{"measurement": "ED50", "setting": "[1]", "value": "0.7 to 2", "unit": "mg/kg"}, {"measurement": "IC50", "setting": "[2]", "value": "6 µM and 5 µM and 4 µM"}, {"measurement": "ED30", "setting": "[3]; Rattus norvegicus, in SSV, 1 hour prior to carrageenan, series of assays, read-out: ED30, inhibition of carrageenan-induced paw edema", "value": "1.1 ± 1", "unit": "mg/kg"}, {"measurement": "inhibition of paw edema at the appropriate dose", "setting": "[3]; maximum amount achievable with NSAIDs", "value": "~ 60%"}]}
